Experiments:
MDA-MB-231 (2LMP) cells = test: Cell growth of MDA-MB-231 (2LMP) cells (WST); type: cell-based; settings: Homo sapiens, read-out: IC50 of cell growth inhibition
Bcl-2 = Bcl-2 (Homo sapiens, UniProt P10415); test: Fluorescence polarization in vitro Bcl-2 binding assay
Procedure: Bcl-2 used in this assay is a recombinant His-fused soluble protein. […] Inc., Research Triangle Park, N.C.). […] The unlabeled Bid peptide is used as the positive control. The Ki values were calculated using our developed equation for FP assay (Nikolovska-Coleska et al., Anal. Biochem., 2004, in press). The program for calculating a Ki value is available free of charge via the Internet at http://sw16.im.med.umich.edu/software/calc_ki/.

human Bcl-xL = human Bcl-xL (Homo sapiens, UniProt Q07817); test: Fluorescence polarization in vitro Bcl-xL binding assay; settings: displacement of Flu-Bak peptide
Description: For determination of the binding affinity to Bcl-xL protein a human Bcl-xL recombinant His-tagged protein without the C-terminus hydrophobic tail and the Bak-16mer BH3 peptide labeled with 6-carboxyfluorescein succinimidyl ester (FAM) were used.

human Bcl-xL, sequence (Q07817 1-209 limits assumed): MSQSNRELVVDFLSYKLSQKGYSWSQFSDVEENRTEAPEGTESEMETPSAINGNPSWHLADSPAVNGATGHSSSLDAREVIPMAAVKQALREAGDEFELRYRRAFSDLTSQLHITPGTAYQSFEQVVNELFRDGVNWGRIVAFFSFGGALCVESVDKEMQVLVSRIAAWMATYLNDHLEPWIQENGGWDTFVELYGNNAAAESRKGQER
Bcl-2, sequence (P10415 92-205 limits assumed): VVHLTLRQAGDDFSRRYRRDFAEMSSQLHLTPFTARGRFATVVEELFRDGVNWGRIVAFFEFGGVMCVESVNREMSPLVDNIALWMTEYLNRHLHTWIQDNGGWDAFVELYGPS

Row | SMILES | IC50 (MDA-MB-231 (2LMP) cells) [nM] | IC50 (Bcl-2) [nM] | IC50 (human Bcl-xL) [nM]
1 | CCCCCCc1cc(C(C)C)c(O)c(O)c1O [TM-103] | 100 to 20000 | – | –
2 | CCCCCC(=O)c1cc(C(C)C)c(O)c(O)c1O [TM-104] | 100 to 20000 | – | –
3 | CCCCCCCCCCCc1cc(C(C)C)c(O)c(O)c1O [TM-105] | 100 to 20000 | > 1000 | > 1000
4 | CCCCCCCCCCC(=O)c1cc(C(C)C)c(O)c(O)c1O [TM-106] | 100 to 20000 | > 1000 | > 1000
5 | CC(C)c1cc(CCc2ccc3ccccc3c2)c(O)c(O)c1O [TM-107] | 100 to 20000 | > 1000 | > 1000
6 | CC(C)c1cc(C(=O)Cc2ccc3ccccc3c2)c(O)c(O)c1O [TM-108] | 100 to 20000 | > 1000 | > 1000
7 | CCCCCCCCCCCCCCCc1cc(C(C)C)c(O)c(O)c1O [TM-109] | 100 to 20000 | – | –
8 | CCCCCCCCCCCCCCC(=O)c1cc(C(C)C)c(O)c(O)c1O [TM-110] | 100 to 20000 | – | –
9 | CCCCCCCCCCCc1cc(Cc2ccccc2)c(O)c(O)c1O [TM-121] | 100 to 20000 | ≤ 1000 | > 1000
10 | CCCCCCCCCCC(=O)c1cc(Cc2ccccc2)c(O)c(O)c1O [TM-122] | 100 to 20000 | ≤ 1000 | > 1000
11 | CCCCCCCCCCC(=O)c1cc(C(CCCCCCCCCC)c2ccccc2)c(O)c(O)c1O (centres unmarked) [TM-124] | > 20000 | – | –
12 | CCCCCCCCCCC(c1ccccc1)c1cc(Cc2ccc(Br)cc2)c(O)c(O)c1O (centres unmarked) [TM-125] | 100 to 20000 | – | –
13 | CC(C)c1ccc(C(=O)c2cc(CCCc3ccccc3)c(O)c(O)c2O)cc1 [TM-126] | 100 to 20000 | – | –
14 | O=C(c1ccc(Br)cc1)c1cc(CCCc2ccccc2)c(O)c(O)c1O [TM-128] | 100 to 20000 | – | –
15 | CCCCCCCCCCCc1cc(CC2CCCCC2)c(O)c(O)c1O [TM-129] | 100 to 20000 | > 1000 | > 1000
16 | CCCCCCCCCCCc1cc(O)c(O)c(O)c1CCCc1ccccc1 [TM-130] | 100 to 20000 | – | –
17 | CC(C)Cc1ccc(Cc2cc(CCCc3ccccc3)c(O)c(O)c2O)cc1 [TM-132] | 100 to 20000 | – | –
18 | Cc1ccc(Cc2ccc(Cc3cc(CCCc4ccccc4)c(O)c(O)c3O)cc2)cc1 [TM-133] | 100 to 20000 | – | > 1000
19 | CC(C)Cc1ccc(Cc2cc(CCCC3CCCCC3)c(O)c(O)c2O)cc1 [TM-134] | 100 to 20000 | – | –
20 | O=C(c1ccc(Cc2cc(CCCc3ccccc3)c(O)c(O)c2O)cc1)c1cccc(O)c1O [TM-135] | 100 to 20000 | – | –
21 | Oc1cccc(Cc2ccc(Cc3cc(CCCC4CCCCC4)c(O)c(O)c3O)cc2)c1O [TM-136] | 100 to 20000 | – | –
22 | O=C(c1cccc(Br)c1)c1cc(CCCc2ccccc2)c(O)c(O)c1O [TM-137] | 100 to 20000 | – | –
23 | O=C(c1ccc(Oc2ccccc2)cc1)c1cc(Cc2ccccc2)c(O)c(O)c1O [TM-140] | 100 to 20000 | – | > 1000
24 | Oc1c(Cc2ccccc2)cc(Cc2ccc(Oc3ccccc3)cc2)c(O)c1O [TM-141] | 100 to 20000 | – | > 1000
25 | Cc1cc(C(=O)c2cc(Cc3ccccc3)c(O)c(O)c2O)c(C(C)C)cc1O [TM-143] | > 20000 | – | –
26 | Cc1cc(Cc2cc(Cc3ccccc3)c(O)c(O)c2O)c(C(C)C)cc1Oc1ccc(C(F)(F)F)cc1[N+](=O)[O-] [TM-144] | 100 to 20000 | – | –
27 | Cc1cc(Cc2cc(Cc3ccccc3)c(O)c(O)c2O)c(C(C)C)cc1Oc1ccc([N+](=O)[O-])c(C(F)(F)F)c1 [TM-145] | 100 to 20000 | – | –

Row | SMILES | IC50 (MDA-MB-231 (2LMP) cells) [nM] | IC50 (Bcl-2) [nM] | IC50 (human Bcl-xL) [nM]
28 | Cc1cc(Cc2cc(Cc3ccccc3)c(O)c(O)c2O)c(C(C)C)cc1Oc1ccc([N+](=O)[O-])cc1C(F)(F)F [TM-146] | 100 to 20000 | – | –
29 | Cc1cc(Cc2cc(Cc3ccccc3)c(O)c(O)c2O)c(C(C)C)cc1Oc1ccnc2ccccc12 [TM-147] | 100 to 20000 | – | –
30 | Cc1cc(C(=O)c2cc(Cc3ccccc3)c(O)c(O)c2O)c(C(C)C)cc1Oc1ccc(C(F)(F)F)cc1[N+](=O)[O-] [TM-148] | 100 to 20000 | – | –
31 | Cc1cc(C(=O)c2cc(Cc3ccccc3)c(O)c(O)c2O)c(C(C)C)cc1Oc1ccc([N+](=O)[O-])c(C(F)(F)F)c1 [TM-149] | 100 to 20000 | – | –
32 | Cc1cc(Cc2cc(Cc3ccccc3)c(O)c(O)c2O)c(C(C)C)cc1Oc1ccc2ccccc2n1 [TM-150] | 100 to 20000 | – | –
33 | CC(C)c1cc(Cc2cc(Cc3ccccc3)c(O)c(O)c2O)ccc1O [TM-152] | 100 to 20000 | – | –
34 | CC(C)c1cc(Cc2cc(Cc3ccccc3)c(O)c(O)c2O)ccc1Oc1ccc2ccccc2n1 [TM-153] | 100 to 20000 | – | –
35 | CC(C)c1cc(Cc2cc(Cc3ccccc3)c(O)c(O)c2O)ccc1Oc1ccnc2ccccc12 [TM-154] | 100 to 20000 | – | –
36 | CC(C)c1cc(Cc2cc(Cc3ccccc3)c(O)c(O)c2O)ccc1Oc1ccc([N+](=O)[O-])cc1C(F)(F)F [TM-155] | 100 to 20000 | – | –
37 | Cc1cc(Oc2ccc(Cc3cc(Cc4ccccc4)c(O)c(O)c3O)cc2C(C)C)c2ccccc2n1 [TM-156] | 100 to 20000 | – | –
38 | O=C(c1ccc(Oc2ccccc2)cc1)c1cc(-c2cccc3ccccc23)c(O)c(O)c1O [TM-165] | 100 to 20000 | – | > 1000
39 | O=C(c1ccc(Oc2ccccc2)cc1)c1ccc(O)c(O)c1O [TM-166] | 100 to 20000 | – | –
40 | O=C(c1ccc(Oc2ccccc2)cc1)c1cc(-c2ccc3ccccc3c2)c(O)c(O)c1O [TM-167] | 100 to 20000 | – | > 1000
41 | O=C(c1ccc(Oc2ccccc2)cc1)c1cc(C(=O)c2cccc3ccccc23)c(O)c(O)c1O [TM-168] | 100 to 20000 | – | –
42 | O=C(c1ccc(Oc2ccccc2)cc1)c1cc(C(=O)c2ccc3ccccc3c2)c(O)c(O)c1O [TM-169] | 100 to 20000 | – | > 1000
43 | O=C(c1ccc(Oc2ccccc2)cc1)c1cc(C(=O)c2ccc(Oc3ccccc3)cc2)c(O)c(O)c1O [TM-170] | 100 to 20000 | – | –
44 | O=C(c1ccc(Oc2ccccc2)cc1)c1cc(C(=O)c2ccc(-c3ccccc3)cc2)c(O)c(O)c1O [TM-171] | 100 to 20000 | – | ≤ 1000
45 | O=C(c1cc(S(=O)(=O)N2CCc3ccccc3C2)c(O)c(O)c1O)N1CCc2ccc(S(=O)(=O)NCCc3ccc(Cl)cc3)cc2C1 [TM-1209] | – | ≤ 1000 | > 1000
46 | NS(=O)(=O)c1ccc(CCNS(=O)(=O)c2ccc3c(c2)CN(C(=O)c2cc(S(=O)(=O)N4CCc5ccccc5C4)c(O)c(O)c2O)CC3)cc1 [TM-1210] | – | ≤ 1000 | > 1000
47 | O=C(c1cc(S(=O)(=O)N2CCc3ccccc3C2)c(O)c(O)c1O)N1CCc2ccc(S(=O)(=O)NCCc3cccc(Oc4ccccc4)c3)cc2C1 [TM-1211] | – | ≤ 1000 | > 1000
48 | O=C(c1cc(S(=O)(=O)N2CCc3ccccc3C2)c(O)c(O)c1O)N1CCc2ccc(S(=O)(=O)NCCc3ccc(Oc4ccccc4)cc3)cc2C1 [TM-1212] | – | > 1000 | > 1000
49 | O=C(c1cc(S(=O)(=O)N2CCc3ccccc3C2)c(O)c(O)c1O)N1CCc2ccc(S(=O)(=O)NCCCc3ccccc3)cc2C1 [TM-1213] | – | ≤ 1000 | > 1000
50 | O=C(c1cc(S(=O)(=O)N2CCc3ccccc3C2)c(O)c(O)c1O)N1CCc2ccccc2C1 [TM-1214] | – | > 1000 | > 1000
51 | CNS(=O)(=O)c1ccc2c(c1)CN(C(=O)c1cc(S(=O)(=O)N3CCc4ccccc4C3)c(O)c(O)c1O)CC2 [TM-1215] | – | > 1000 | > 1000
52 | CCC(CC)CNS(=O)(=O)c1ccc2c(c1)CN(C(=O)c1cc(S(=O)(=O)N3CCc4ccccc4C3)c(O)c(O)c1O)CC2 [TM-1216] | – | ≤ 1000 | > 1000
53 | CNS(=O)(=O)c1cc(C(=O)N2CCc3ccc(S(=O)(=O)NCCc4ccccc4)cc3C2)c(O)c(O)c1O [TM-1217] | – | > 1000 | > 1000

— patent US8557812B2, “Small molecule inhibitors of anti-apoptotic BCL-2 family members and the uses thereof” (The Regents of the University of Michigan, priority 2004, dated 2013)
